Entries after “also recorded” stand apart in the source; their conditions may differ.
Experiments:
Halyomorpha halys [1] = assay: Open-air small cage bioassay: feeding deterrence/repellency on treated peaches and apples; assay type: in vivo; conditions: open-air system
Description: Small Cage Bioassays: Nymphs and adults were tested for effects of feeding deterrents/repellents from islongifolanone, islongifolenone, C-13, and E-2-decenal applied to organic peaches and gala apples in a small cage. Insects were starved for 16 hours prior to experiments before being transferred in groups of 15 (nymphs) or 10 (adults male or female) to two gallon containers containing one treated fruit, and observed hourly for the number of nymphs on the fruit. Experiments were conducted in a fume hood under the same light and heat conditions as above. Different concentrations of isolongifolanone, isolongifolenone, C-13, and E-2-decenal were tested both individually and combined (equal amount of each component), with a final concentration of 70-80 mg/fruit chosen as an effective treatment. Compounds (400 mg) were combined with the emulsifier Tween-80 (2 mg), mixed with water (H2O 10 ml) in glass vial (20 ml), and sonicated for 20 min. The solution containing emulsifier Tween-80 (2 mg) in 10 ml water was used as control. […]
Small cage bioassays were analyzed by replicate, treatment, and time using repeated measures ANOVA and multiple comparisons for treatments were tested using Tukeys HSD, Model: Nymphs on Fruit=Treatment, Rep (Treatment), Time, Treatment*Time.

Halyomorpha halys [2] = assay: Optimized closed-air petri dish bioassay: feeding deterrence on green beans; assay type: in vivo; design: key to significance of repelling insect from treated bean relative to pentane control: p<0.05 (*); p<0.01 (**); p<0.001 (***); n.s.: compound tested was not significant in repelling insect from treated bean; conditions: for overall repellent effectiveness (conclusion): all age groups and sexes of H. halys
Description: Optimized petri dish bioassays: Insects tested were moved in groups from Thermo Forma cages to plastic petri dishes for food and water deprivation 16-20 hours before bioassays. Adults were separated by age and sex and held in groups of five, nymphs were held in groups of 20. Bioassays were conducted from April-June of 2012 between 8 a.m. and 4 p.m., in a fume hood lined with black paper and covered with black curtain to prevent external visual stimuli. The fume hood was illuminated by a single 60 watt light bulb with a light intensity of 800 LUX, placed 50 cm above bio assay arenas, with 26°-28° C. temperature and 50% relative humidity. Glass petri dishes (10 cm diameter) were used for the bioassay arena and were lined with Whatman's #1 filter paper (9 cm) that was changed before each assay. Adults were bioassayed individually. Nymphs were tested in groups of four because in preliminary assays they were observed continually walking for up to four hours unless conspecifics were present.
We then used the optimized solvent (i.e., pentane) to test the effects of different repellents on deterring H. halys feeding on organic green beans in petri dishes. Insects were tested in a glass Petri dish for their attraction/aversion to 1 μg and 100 μg concentrations of isolongifolanone and isolongifolenone (International Flavors and Fragrances, NY), C-13, and E-2-decenal, diluted in pentane. Pure pentane was tested as a control. Whatman's #1 filter paper (9 cm) was placed in petri dish and 2× one-inch diameter impressions were made with a metal circle. One circle was treated with 75 ul of pentane (control) and the other with pentane+repellant (treatment) and dried for five minutes. One-inch sections of organic green beans were placed over the treated or untreated circle. Starved insects were introduced to the petri dish assay arena and observed at three time points in 45 minute increments for 2.25 hours. Their location was recorded as feeding with stylet inserted on the treatment (i.e., odor) bean, blank bean, or off bean (i.e., walking off of food source or no movement in petri dish and not on bean). Individuals were only used for one bioassay at the adult or nymphal stage in their lifetime. Petri dishes were rinsed with water daily and baked overnight at 100° C., and were rinsed with acetone after every six uses.
Optimized petri dish bioassays were analyzed for each age group, sex, and treatment using Likelihood Ratio tests (JMP®). Percent response for each choice per compound was averaged over the three time periods observed. The likelihood of the three choices was set to the level determined by the pentane control for each age/sex group, and the confidence interval set at 95%. P-values are indicated as follows: *=0.05; **=0.01; ***=0.001.

Halyomorpha halys [3] = conditions: for feeding on solvent-treated versus untreated green bean: starved adult males ages 3-7 days, 35 μl of solvent on 1-inch section of green bean
Description: We tested the effects of solvent on H. halys survival and feeding behavior to optimize the solvent used in petri dish assays. Mortality of 3rd stage nymphs, and adult males and females (ages 3-7 days or 13-23 days into adult stage), was quantified as the percentage of individuals who died after exposure to methylene chloride (DCM) after 2.25 hours. […] Insects were starved for 16-20 hours prior to being exposed to 1 inch cut sections of organic green beans in a 10 cm petri covered glass petri dish. One bean was coated with […] solvent while the other was untreated. Behaviors of young adult male individuals were recorded at three time points (45, 90, and 135 minutes) as feeding on the blank (untreated) bean, feeding on the odor (solvent-treated) bean, or sitting on the wall of the petri dish. Percent response for each choice was averaged over the three time periods.

[4] = Nymph (3rd stage), starved, 1 μg in pentane on filter paper under green bean
[5] = Nymph (3rd stage), starved, 100 μg in pentane on filter paper under green bean
[6] = Old Adult Male (13-23 days), 1 μg
[7] = Old Adult Male (13-23 days), 100 μg
[8] = Young Adult Male (3-7 days), 1 μg
[9] = Young Adult Male (3-7 days), 100 μg
[10] = starved nymphs (3rd stage), 1 μg, FIG. 6A
[11] = starved nymphs (3rd stage), 100 μg, FIG. 6A
[12] = young adult males (3-7 days), 100 μg, FIG. 6B
[13] = old adult females, 100 μg, FIG. 6E
[14] = young adult females, 100 μg, FIG. 6C

## CCCCCCCCCCCCC [C-13, tridecane]
Halyomorpha halys [1]
  repellency in small cage tests compared with petri dish: decreased repellency
Halyomorpha halys [2]; [4]
  significance of repelling insect from treated bean relative to pentane control: *** (p<0.001 (***))
Halyomorpha halys [2]; [5]
  significance of repelling insect from treated bean relative to pentane control: ** (p<0.01 (**))
Halyomorpha halys [2]; Old Adult Female, 1 μg
  significance of repelling insect from treated bean relative to pentane control: n.s.
Halyomorpha halys [2]; Old Adult Female, 100 μg
  significance of repelling insect from treated bean relative to pentane control: n.s.
Halyomorpha halys [2]; [6]
  significance of repelling insect from treated bean relative to pentane control: n.s.
Halyomorpha halys [2]; [7]
  significance of repelling insect from treated bean relative to pentane control: * (p<0.05 (*))
Halyomorpha halys [2]; Young Adult Female, 1 μg
  significance of repelling insect from treated bean relative to pentane control: n.s.
Halyomorpha halys [2]; Young Adult Female, 100 μg
  significance of repelling insect from treated bean relative to pentane control: n.s.
Halyomorpha halys [2]; [8]
  significance of repelling insect from treated bean relative to pentane control: n.s.
Halyomorpha halys [2]; [9]
  significance of repelling insect from treated bean relative to pentane control: * (p<0.05 (*))
Halyomorpha halys [2]; concentration not given, diluted in pentane
  repellency/deterrence across age groups and sexes (summary): deterrent to young males and old adult males and nymphs; also recorded: deterred H. halys feeding
Halyomorpha halys [2]; old adult males (13-23 days), 1 μg, FIG. 6D
  likelihood to feed on treated green bean (in words): significantly less likely to feed
Halyomorpha halys [2]; [10]
  likelihood to feed on treated green bean (in words): significantly less likely to feed
Halyomorpha halys [2]; [11]
  likelihood to feed on treated green bean (in words): significantly less likely to feed
Halyomorpha halys [2]; [12]
  likelihood to feed on treated green bean (in words): significantly less likely to feed

## CCCCCCC/C=C/C=O [E-2-decenal]
Halyomorpha halys [2]; 1 μg
  repellency/deterrence across age groups and sexes (summary of Table 1): effective at deterring Nymphs, young adult males, and old adult females
Halyomorpha halys [2]; 100 μg concentration
  repellency/deterrence across age groups and sexes (summary of Table 1): effective at deterring old adult males
Halyomorpha halys [2]; [4]
  significance of repelling insect from treated bean relative to pentane control: ** (p<0.01 (**))
Halyomorpha halys [2]; [5]
  significance of repelling insect from treated bean relative to pentane control: n.s.
Halyomorpha halys [2]; Old Adult Female, 1 μg
  significance of repelling insect from treated bean relative to pentane control: n.s.
Halyomorpha halys [2]; Old Adult Female, 100 μg
  significance of repelling insect from treated bean relative to pentane control: * (p<0.05 (*))
Halyomorpha halys [2]; [6]
  significance of repelling insect from treated bean relative to pentane control: n.s.
Halyomorpha halys [2]; [7]
  significance of repelling insect from treated bean relative to pentane control: * (p<0.05 (*))
Halyomorpha halys [2]; Young Adult Female, 1 μg
  significance of repelling insect from treated bean relative to pentane control: n.s.
Halyomorpha halys [2]; Young Adult Female, 100 μg
  significance of repelling insect from treated bean relative to pentane control: n.s.
Halyomorpha halys [2]; [8]
  significance of repelling insect from treated bean relative to pentane control: ** (p<0.01 (**))
Halyomorpha halys [2]; [9]
  significance of repelling insect from treated bean relative to pentane control: n.s.
Halyomorpha halys [2]; young adult males (3-7 days), 1 μg, FIG. 6B
  likelihood to feed on treated green bean (in words): significantly less likely to feed

## CC(C)=O [acetone]
Halyomorpha halys [3]
  feeding on solvent-treated versus untreated green bean: significantly less likely to feed

## CCO [ethanol]
Halyomorpha halys [3]
  feeding on solvent-treated versus untreated green bean: Less feeding aversion

## CCCCCC [hexane]
Halyomorpha halys [3]
  feeding on solvent-treated versus untreated green bean: significantly less likely to feed

## CC1(C)C2=CC(=O)CC(C)(C)[C@]23CC[C@H]1C3 [isolongifolenone]
Halyomorpha halys [2]; 100 μg concentration
  repellency/deterrence across age groups and sexes (summary of Table 1): deterring all groups except for old adult males
Halyomorpha halys [2]; [4]
  significance of repelling insect from treated bean relative to pentane control: *** (p<0.001 (***))
Halyomorpha halys [2]; [5]
  significance of repelling insect from treated bean relative to pentane control: ** (p<0.01 (**))
Halyomorpha halys [2]; Old Adult Female, 1 μg
  significance of repelling insect from treated bean relative to pentane control: n.s.
Halyomorpha halys [2]; Old Adult Female, 100 μg
  significance of repelling insect from treated bean relative to pentane control: * (p<0.05 (*))
Halyomorpha halys [2]; [6]
  significance of repelling insect from treated bean relative to pentane control: n.s.
Halyomorpha halys [2]; [7]
  significance of repelling insect from treated bean relative to pentane control: n.s.
Halyomorpha halys [2]; Young Adult Female, 1 μg
  significance of repelling insect from treated bean relative to pentane control: n.s.
Halyomorpha halys [2]; Young Adult Female, 100 μg
  significance of repelling insect from treated bean relative to pentane control: *** (p<0.001 (***))
Halyomorpha halys [2]; [8]
  significance of repelling insect from treated bean relative to pentane control: n.s.
Halyomorpha halys [2]; [9]
  significance of repelling insect from treated bean relative to pentane control: *** (p<0.001 (***))
Halyomorpha halys [2]
  overall repellent effectiveness (conclusion): highly effective repellents
Halyomorpha halys [2]; [13]
  likelihood to feed on treated green bean (in words): significantly less likely to feed; also recorded: deterred
Halyomorpha halys [2]; [10]
  likelihood to feed on treated green bean (in words): significantly less likely to feed
Halyomorpha halys [2]; [11]
  likelihood to feed on treated green bean (in words): significantly less likely to feed
Halyomorpha halys [2]; [14]
  likelihood to feed on treated green bean (in words): significantly less likely to feed; also recorded: deterred
Halyomorpha halys [2]; [12]
  likelihood to feed on treated green bean (in words): significantly less likely to feed

## ClCCl [methylene chloride (DCM), methylene chloride]
Halyomorpha halys [3]; 3rd stage nymphs, adult males and females, after 2.25 hours
  mortality (susceptibility) after exposure to solvent: young adult males were the most susceptible
Halyomorpha halys [3]
  feeding on solvent-treated versus untreated green bean: significantly less likely to feed

## CCCCC [pentane]
Halyomorpha halys [3]
  feeding on solvent-treated versus untreated green bean: slight preference for pentane-treated green beans over the untreated control bean

## isolongifolanone
Halyomorpha halys [2]; 100 μg concentration
  repellency/deterrence across age groups and sexes (summary of Table 1): significantly repellent to all age groups and sexes
Halyomorpha halys [2]; [5]
  significance of repelling insect from treated bean relative to pentane control: *** (p<0.001 (***))
Halyomorpha halys [2]; Old Adult Female, 100 μg
  significance of repelling insect from treated bean relative to pentane control: *** (p<0.001 (***))
Halyomorpha halys [2]; [7]
  significance of repelling insect from treated bean relative to pentane control: *** (p<0.001 (***))
Halyomorpha halys [2]; Young Adult Female, 100 μg
  significance of repelling insect from treated bean relative to pentane control: *** (p<0.001 (***))
Halyomorpha halys [2]; [9]
  significance of repelling insect from treated bean relative to pentane control: *** (p<0.001 (***))
Halyomorpha halys [2]
  overall repellent effectiveness (conclusion): highly effective repellents
Halyomorpha halys [2]; [13]
  likelihood to feed on treated green bean (in words): significantly less likely to feed; also recorded: deterred
Halyomorpha halys [2]; old adult males (13-23 days), 100 μg, FIG. 6D
  likelihood to feed on treated green bean (in words): significantly less likely to feed
Halyomorpha halys [2]; [11]
  likelihood to feed on treated green bean (in words): significantly less likely to feed
Halyomorpha halys [2]; [14]
  likelihood to feed on treated green bean (in words): significantly less likely to feed; also recorded: deterred
Halyomorpha halys [2]; [12]
  likelihood to feed on treated green bean (in words): significantly less likely to feed
